Assay [1] has as its system pERK (phospho-p44/42 ERK) in HCC827 cells. The assay can be described thus: Cellular pERK Inhibition Assay, Method A (In-Cell Western). The class given is cell-based. The conditions noted are these: Homo sapiens. The procedure, abridged:
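In-Cell Western: phospho-p44/42 ERK antibody staining of formalin-fixed HCC827 cells after compound exposure (serum-free medium, 0.2% DMSO, 37 °C, indicated time). Readings minus cell-free blanks were normalised to DMSO-treated wells. Relative IC50 came from four-parameter logistic fits of quadruplicates, given as single or mean values.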

The next assay has as its target SHP2 (Homo sapiens (Human), UniProt Q06124). The assay is described as follows: SHP2 Biochemical Assay (DiFMUP conversion, pIRS1-activated). Put shortly: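 Rates of DiFMU formation were followed 30 min at ex 360/em 450 nm, with 50 μM DiFMUP, 10 pM SHP2 and pIRS1 peptide ([…]) after 30 min compound pre-incubation at pH 7.0 Bis-Tris propane. Four-parameter logistic IC50s in singlicate; repeat runs averaged.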

Setting [2] is: Table 19, head prints unit as "-M", read-out: pERK (IC50) Method A.
Where [3] appears, read: Table 19, head prints unit as "-M".

Like-named read-outs stand apart in the source and are kept apart here.

Sequence of SHP2 (Q06124 whole entry): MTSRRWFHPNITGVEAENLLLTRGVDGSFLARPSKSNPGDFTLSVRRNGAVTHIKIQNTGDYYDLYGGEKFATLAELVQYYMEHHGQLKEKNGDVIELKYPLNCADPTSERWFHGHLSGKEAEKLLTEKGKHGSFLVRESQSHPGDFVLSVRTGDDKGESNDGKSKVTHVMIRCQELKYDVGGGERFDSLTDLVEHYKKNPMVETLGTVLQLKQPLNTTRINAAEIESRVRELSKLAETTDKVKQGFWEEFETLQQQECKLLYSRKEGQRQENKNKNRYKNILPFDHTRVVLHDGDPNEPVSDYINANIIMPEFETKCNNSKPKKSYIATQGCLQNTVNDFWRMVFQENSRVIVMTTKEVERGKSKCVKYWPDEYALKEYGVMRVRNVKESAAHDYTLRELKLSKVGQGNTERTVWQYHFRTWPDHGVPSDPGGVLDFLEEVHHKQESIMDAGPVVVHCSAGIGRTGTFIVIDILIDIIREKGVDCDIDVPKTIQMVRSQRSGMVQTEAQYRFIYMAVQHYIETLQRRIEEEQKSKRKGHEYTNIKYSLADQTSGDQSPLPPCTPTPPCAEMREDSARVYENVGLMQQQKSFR

On to `Cn1cc2c(Cl)c(-c3c[nH]c4nc(N5[C@@H]6CC[C@H]5C[C@@H](N)C6)n(C)c(=O)c34)ccc2n1` [Example 8, 2-(endo-3-amino-8-azabicyclo[3.2.1]octan-8-yl)-5-(4-chloro-2-methyl-2H-indazol-5-yl)-3-methyl-3,7-dihydro-4H-pyrrolo[2,3-d]pyrimidin-4-one], for which the IC50 (as a rule, the concentration needed to halve the response being measured) in assay [1] (setting [2]) was determined as 0.095 µM; against SHP2 (setting [3]), 11 nM.

With `CN[C@@H]1C[C@@H]2CC[C@H]1N2c1nc2[nH]nc(-c3ccc4nn(C)cc4c3Cl)c2c(=O)n1C` [Example 120, 3-(4-chloro-2-methyl-2H-indazol-5-yl)-5-methyl-6-((1R,2R,4S)-2-(methylamino)-7-azabicyclo[2.2.1]heptan-7-yl)-1,5-dihydro-4H-pyrazolo[3,4-d]pyrimidin-4-one], the values for the IC50 (in assay [1] (setting [2]); on SHP2 (setting [3])) were 0.55 µM and 29 nM, respectively.

Turning to `Cn1cc2cc(-c3c[nH]c4nc(N5[C@@H]6CC[C@H]5C[C@@H](N)C6)n(C)c(=O)c34)ccc2n1` [Example 67, 2-(endo-3-amino-8-azabicyclo[3.2.1]octan-8-yl)-3-methyl-5-(2-methyl-2H-indazol-5-yl)-3,7-dihydro-4H-pyrrolo[2,3-d]pyrimidin-4-one], the results for the IC50 (in assay [1] (setting [2]); against SHP2 (setting [3])) were 3.4 µM and 340 nM, respectively.

Consider `CCn1cc2c(Cl)c(-c3c[nH]c4nc(N5CCC(C)(N)CC5)n(C)c(=O)c34)ccc2n1` [Example 3, 2-(4-amino-4-methylpiperidin-1-yl)-5-(4-chloro-2-ethyl-2H-indazol-5-yl)-3-methyl-3,7-dihydro-4H-pyrrolo[2,3-d]pyrimidin-4-one], for which the results for the IC50 (in assay [1] (setting [2]); on SHP2 (setting [3])) were 0.21 µM and 15 nM, respectively.

On to `CN[C@@H]1C[C@@H]2CC[C@H]1N2c1nc2[nH]nc(-c3ccc4nn(C)c(Cl)c4c3Cl)c2c(=O)n1C` [Example 119, 3-(3,4-dichloro-2-methyl-2H-indazol-5-yl)-5-methyl-6-((1R,2R,4S)-2-(methylamino)-7-azabicyclo[2.2.1]heptan-7-yl)-1,5-dihydro-4H-pyrazolo[3,4-d]pyrimidin-4-one], for which the IC50 turned out to be 0.29 µM in assay [1] (setting [2]) and 17 nM at SHP2 (setting [3]).

As for `Cn1nc2ccc(-c3c[nH]c4nc(N5[C@H]6CC[C@@H]5[C@@H](F)[C@@H](N)C6)n(C)c(=O)c34)c(Cl)c2c1Cl` [Example 163, 2-((1R,2S,3S,5S)-3-amino-2-fluoro-8-azabicyclo[3.2.1]octan-8-yl)-5-(3,4-dichloro-2-methyl-2H-indazol-5-yl)-3-methyl-3,7-dihydro-4H-pyrrolo[2,3-d]pyrimidin-4-one], the IC50 in assay [1] (Table 20, read-out: pERK (IC50, μM) Method A) is 0.012 µM; on SHP2 (Table 20) it was 2 nM.

For the compound `CCn1nc2ccc(-c3c[nH]c4nc(N5[C@H]6CC[C@@H]5[C@H](N)C6)n(C)c(=O)c34)c(Cl)c2c1OC` [Example 102, 2-((1R,2R,4S)-2-amino-7-azabicyclo[2.2.1]heptan-7-yl)-5-(4-chloro-2-ethyl-3-methoxy-2H-indazol-5-yl)-3-methyl-3,7-dihydro-4H-pyrrolo[2,3-d]pyrimidin-4-one], the IC50 was 0.088 µM in assay [1] (setting [2]) and 9 nM on SHP2 (setting [3]).

On to `Cn1cc2c(Cl)c(-c3c[nH]c4nc(N5CC(N)C(F)(F)C5)n(C)c(=O)c34)ccc2n1` (stereo not drawn) [Example 53, 2-(4-amino-3,3-difluoropyrrolidin-1-yl)-5-(4-chloro-2-methyl-2H-indazol-5-yl)-3-methyl-3,7-dihydro-4H-pyrrolo[2,3-d]pyrimidin-4-one], for which the figures for the concentration for half-maximal inhibition (IC50) (in assay [1] (setting [2]); against SHP2 (setting [3])) were 3.1 µM and 330 nM, respectively.

Take `Cn1nc2ccc(-c3c[nH]c4nc(N5C6CCCC5CNC6)n(C)c(=O)c34)c(F)c2c1Cl` [Example 100, 2-(3,9-diazabicyclo[3.3.1]nonan-9-yl)-5-(3-chloro-4-fluoro-2-methyl-2H-indazol-5-yl)-3-methyl-3,7-dihydro-4H-pyrrolo[2,3-d]pyrimidin-4-one]: the IC50 worked out at 0.095 µM in assay [1] (setting [2]) and 6 nM against SHP2 (setting [3]).

The record behind these values is patent US12037345B2, “Heterobicyclic compounds for inhibiting the activity of SHP2” (TAIHO PHARMACEUTICAL CO., LTD., priority 2018, dated 2024).
